The data set is described as follows: Equilibrium solubility by the shake-flask method with HPLC-UV analysis. Format: physicochemical. Particulars: for [PZQ] in SCF attained in 24 hours / [PZQ] in SGF attained in 24 hours / [PZQ] in SIF attained in 24 hours / [PZQ] in H2O attained in 24 hours / solubility thermodynamic at 24 h: shake-flask; for [PZQ] in SCF attained in 24 hours / [PZQ] in SGF attained in 24 hours / [PZQ] in SIF attained in 24 hours / [PZQ] in H2O attained in 24 hours: n = 3; for Increase in solubility in SIF compared to PZQ alone: 24 h, relative to pure PZQ; for solubility thermodynamic at 24 h: thermodynamic from solid. As for the experimental part:
The stock solution of PZQ (2 mg/mL) was prepared by dissolving the pure compound in MeCN. Corresponding aliquots were diluted with the same solvent for the preparation of working PZQ solutions. Samples of 10 μL were injected into the chromatographic system. […] Ultrapure water was used as the reference dissolution medium. The solubility of the obtained PZQ cocrystals was determined by the shake-flask method. Briefly, excess PZQ and PZQ cocrystals (the corresponding amount of 6 mg of PZQ) were added to 2 mL vials containing 2 mL of the dissolution medium. The slurry samples were placed in an orbital shaker to achieve uniform mixing at 37 °C for 24 h. At different time intervals (10, 20, 30, 40, 50, 60, and 90 min), an aliquot of 200 μL of each sample was collected after centrifugation, filtered, and analyzed concerning the PZQ content by HPLC-UV analysis.
The solubilities of each cocrystal and PZQ were tested in ultrapure water and the three dissolution media, simulating the biorelevant fluids present along the entire gastrointestinal tract, namely, SGF (simulated gastric fluid), SIF (simulated intestinal fluid), and SCF (simulated colonic fluid).

Setting [1] is: simulated colonic fluid pH 7.8, 37 °C.
The mark [2] stands for this setting: simulated gastric fluid pH 1.5, 37 °C.
Setting [3] is: simulated intestinal fluid pH 7.4, 37 °C.

Like-named read-outs stand apart in the source and are kept apart here.

Consider `O=C(C1CCCCC1)N1CC(=O)N2CCc3ccccc3C2C1.O=C(O)c1ccc(O)cc1` (stereo not drawn) [Co-Crystal 5, PZQ – 4-HYDROXYBENZOIC ACID (4HBA)], for which the “[PZQ] in SCF attained in 24 hours” value under setting [1] is 247.22 µg/mL. Besides, under setting [2], the “[PZQ] in SGF attained in 24 hours” value was 203.21 µg/mL. In addition, the “[PZQ] in SIF attained in 24 hours” value under setting [3] is 217.86 µg/mL. Besides, the “[PZQ] in H2O attained in 24 hours” value (ultrapure water, 37 °C) stood at 225.06 µg/mL.
For the compound `O.O=C(C1CCCCC1)N1CC(=O)N2CCc3ccccc3C2C1.O=C(O)c1ccccc1O` (stereo not drawn) [Co-Crystal 6, PZQ – SALICYLIC ACID (SAL) – H2O], the “[PZQ] in SCF attained in 24 hours” value under setting [1] was 258.43 µg/mL. For the same compound, the “[PZQ] in SGF attained in 24 hours” value under setting [2] is 202.80 µg/mL. In addition, the “[PZQ] in SIF attained in 24 hours” value under setting [3] was 246.81 µg/mL. Also, the “[PZQ] in H2O attained in 24 hours” value (ultrapure water, 37 °C) was 220.38 µg/mL.
In the case of `O=C(C1CCCCC1)N1CC(=O)N2CCc3ccccc3C2C1.O=C(O)c1cccc(O)c1` (stereo not drawn) [Co-Crystal 7, PZQ – 3-HYDROXYBENZOIC ACID (3HBA) (1:1)], the “Increase in solubility in SIF compared to PZQ alone” value came to 1.2 fold. Besides, the “[PZQ] in SCF attained in 24 hours” value under setting [1] is 251.67 µg/mL. In addition, under setting [2], the “[PZQ] in SGF attained in 24 hours” value is 214.21 µg/mL. Besides, the “[PZQ] in SIF attained in 24 hours” value under setting [3] is 232.31 µg/mL. Besides, the “[PZQ] in H2O attained in 24 hours” value (ultrapure water, 37 °C) came to 252.60 µg/mL.
For the compound `O=C(C1CCCCC1)N1CC(=O)N2CCc3ccccc3C2C1.O=C(O)C(=O)O` (stereo not drawn) [Co-Crystal 8, PZQ – OXALIC ACID (OXA)], the “[PZQ] in SCF attained in 24 hours” value under setting [1] is 252.98 µg/mL. For the same compound, under setting [2], the “[PZQ] in SGF attained in 24 hours” value is 238.78 µg/mL. In addition, the “[PZQ] in SIF attained in 24 hours” value under setting [3] was 229.26 µg/mL. Under “ultrapure water, 37 °C”, the “[PZQ] in H2O attained in 24 hours” value came to 250.12 µg/mL.
The corresponding values for `O=C(C1CCCCC1)N1CC(=O)N2CCc3ccccc3C2C1.O=C(C1CCCCC1)N1CC(=O)N2CCc3ccccc3C2C1.O=C(O)c1cccc(O)c1` (stereo not drawn) [Co-Crystal 9, PZQ – 3-HYDROXYBENZOIC ACID (3HBA) (2:1)] are 257.95 µg/mL, 231.45 µg/mL, 226.47 µg/mL and 248.12 µg/mL.
As to `O=C(C1CCCCC1)N1CC(=O)N2CCc3ccccc3C2C1` (stereo not drawn) [Co-Crystal 12, praziquantel], the solubility thermodynamic at 24 h by setting is: (simulated colonic fluid (SCF), fassgf or other biorelevant, simulated colonic fluid pH 7.8, 37 °C, n = 3, read-out: [PZQ] in SCF attained in 24 hours) 220 µg/mL; (simulated gastric fluid (SGF), simulated gastric fluid pH 1.5, 37 °C, n = 3, read-out: [PZQ] in SGF attained in 24 hours) 200 µg/mL; (simulated intestinal fluid (SIF), fassgf or other biorelevant, simulated intestinal fluid pH 7.4, 37 °C, n = 3, read-out: [PZQ] in SIF attained in 24 hours) 193 µg/mL; (ultrapure water, 37 °C, n = 3, read-out: [PZQ] in H2O attained in 24 hours) 211 µg/mL.
Consider “PZQ – 4-AMINOSALICYLIC ACID (4ASA) – MeCN [Co-Crystal 3]”, for which the “[PZQ] in SCF attained in 24 hours” value under setting [1] was 294.31 µg/mL. Also, the “[PZQ] in SGF attained in 24 hours” value under setting [2] is 323.31 µg/mL. The “[PZQ] in SIF attained in 24 hours” value under setting [3] was 264.29 µg/mL. The “[PZQ] in H2O attained in 24 hours” value (ultrapure water, 37 °C) was found to be 278.89 µg/mL.
For “PZQ – 5-HYDROXYISOPHTHALIC ACID (5HIP) – MeCN [Co-Crystal 1]”, the “Increase in solubility in SIF compared to PZQ alone” value is reported as 1.87 fold. Also, the “[PZQ] in SCF attained in 24 hours” value under setting [1] was 122.86 µg/mL. Moreover, the “[PZQ] in SGF attained in 24 hours” value under setting [2] is 85.70 µg/mL. The “[PZQ] in SIF attained in 24 hours” value under setting [3] is 361.00 µg/mL. Further, the “[PZQ] in H2O attained in 24 hours” value (ultrapure water, 37 °C) worked out at 95.51 µg/mL.
The corresponding values for “PZQ – TRIMESIC ACID (TRI) – H2O [Co-Crystal 4]” are 1.26 fold, 193.95 µg/mL, 44.98 µg/mL, 242.32 µg/mL and 56.09 µg/mL.

The values are drawn from article PMC11157481, “Mechanochemical Synthesis of New Praziquantel Cocrystals: Solid-State Characterization and Solubility” (Crystal Growth & Design, 2024).
